Key:
[1] = pH dependence of solubility of LMT.2MsOH in buffered aqueous solutions at 25° C.; format: physicochemical; settings: aqueous buffer, thermodynamic from solid
Description: In related experiments three buffered stock solutions were prepared (pH 2, pH 3, and pH 7) as follows: A solution of (0.2 M) potassium chloride (KCl) (0.745 g in 50 mL of deionised water) was initially prepared. From this solution 50 mL was taken and diluted with approximately 80 mL of deionised water. A (0.2 M) hydrochloric acid (HCl) solution was then used to adjust the pH to 2, before further dilution with deionised water to make up to 200 mL. A final pH of 2.00 at 21.6° C. was recorded. A solution of (0.1 M) potassium hydrogen phthalate (2.042 g in 100 mL of deionised water) was initially prepared. From this solution 100 mL was taken and diluted with approximately 50 mL of deionised water. A 0.2 M HCl solution was then used to adjust the pH to 3, before further dilution with deionised water to make up to 200 mL. A final pH of 2.99 at 21.7° C. was recorded. A solution of (0.1 M) potassium phosphate monobasic (KH2PO4) (1.370 g in 100 mL of deionised water) was initially prepared. From this solution 100 mL was taken and diluted with approximately 80 mL of deionised water. A 0.5 M sodium hydroxide (NaOH) solution was then used to adjust the pH to 7, before further dilution with deionised water to make up to 200 mL. A final pH of 7.07 at 22° C. was recorded. […] This vial was placed into a water bath set at 25° C. To the solution was added LMT.2MsOH in 1-1.5 g portions. After each addition, a 10 minutes stir time was allowed to ensure maximum opportunity for dissolution. The homogeneity of the mixture was judged by eye. If solid was still present, after the stir time, as judged by visual inspection, the saturation point was judged to have been reached. The viscosity of the resulting mixtures precluded adequate isolation of the excess solid, therefore it was not possible to determine exact solubility values.

[2] = Dynamic vapour sorption (DVS); format: physicochemical; settings: crystalline, 25° C., relative humidity range between 0% and 70%
Description: FIGS. 15a and 15b show the dynamic vapour sorption (DVS) curve for crystalline LMT.2MsOH measured at 25° C. with 5%/h scanning rate. The horizontal dashed lines indicate steps of water uptake of one equivalent. […] Above this r.h., the water uptake increased rapidly, and the sample ultimately deliquesced. Upon drying, the water content decreased again to approximately 4 equiv. at 50% r.h.
Projekt Messtechnik SPS 11-100n water vapor sorption analyzer. The samples were placed in aluminum crucibles on top of a microbalance and were equilibrated at 25° C. and 50% r.h. before starting a pre-defined humidity program at 25° C. (50-0-95-50% r.h., scanning with Δ r.h.=5% h^−1 and with ‘isohumid’ equilibration periods at the extreme values).

female Wistar rats = assay: 14 day oral administration to rats: toxicology and neutrophil response; format: in vivo
Description: Table: Neutrophil response in rats following 14 day oral administration of different salt forms of LMT.

[3] = Solubility of LMT salts in aqueous HCl solutions at 37° C.; format: physicochemical; settings: aqueous HCl solution pH 2.00 (21.4° C.); lower limit complete dissolution, upper limit saturation
Description: Two aqueous solutions (pH 2.00 and 3.01 at 21.4° C.) were prepared by carefully adding HCl (5 M) to deionised water. In each experiment a 5 ml aliquot of one of the aforementioned solutions was heated to 37° C. […] This step was repeated until no further dissolution took place.

minipigs = assay: Studies on the hemopoietic system (methemoglobinemia), minipig; format: in vivo
Description: Studies on the hemopoietic system were performed in rat, monkey and minipig.

[4] = target: full-length human tau protein (htau40) and truncated tau (295-390, dGA) in 3T6 mouse cells (Homo sapiens, UniProt P10636); assay: Cell-based tau aggregation assay
[5] = test system: rat, stomach (non glandular); assay: Gastric irritation: 28-day rat study with LMT.2MsOH; format: in vivo; design: key to Gastritis, grade 2 (slight): incidence / Gastritis, grade 3 (moderate): incidence / Gastritis, total incidence / Inflammatory cell infiltration, grade 1 (minimal): incidence / Inflammatory cell infiltration, grade 2 (slight): incidence / Gastritis, grade 1 (minimal): incidence: “—” = finding not present; 1 = minimal; 2 = slight; 3 = moderate; 4 = moderately severe; 5 = severe; settings: for Gastritis, total incidence / Gastritis, grade 1 (minimal): incidence / Gastritis, grade 2 (slight): incidence / Gastritis, grade 3 (moderate): incidence / Inflammatory cell infiltration, grade 1 (minimal): incidence / Inflammatory cell infiltration, grade 2 (slight): incidence: 90 mg/kg/day, 28-day, 10 examined; for Gastritis, total incidence: number of animals; for Gastritis, grade 1 (minimal): incidence / Gastritis, grade 2 (slight): incidence / Gastritis, grade 3 (moderate): incidence / Inflammatory cell infiltration, grade 1 (minimal): incidence / Inflammatory cell infiltration, grade 2 (slight): incidence: terminal kill, cell = number of animals
Description: Study (28-day rat study with LMT.2MsOH): Incidence and severity of selected microscopic findings in sternum, liver, spleen and stomach from terminal animals

[6] = Pharmacokinetics: plasma concentration of the MT moiety in pig; format: in vivo; settings: oral doses 2 and 15 mg/kg
rats = assay: Studies on the hemopoietic system (methemoglobinemia), rat; format: in vivo
[7] = target: T1, truncated tau (amino acids 297-391) in solution binding to solid-phase bound truncated tau (residues 297-390) (Homo sapiens, UniProt P10636); assay: Solid phase assay for tau aggregation (tau-tau binding, B50); settings: concentration at which tau-tau binding is decreased by 50%; mean ± SE
T1 construct: made in house
Description: The tau-tau aggregation assay uses purified recombinant tau fragments in a solid-phase immunoassay. Methods are described in detail in e.g. WO 96/30766. Briefly, the assay measures the binding of truncated tau (amino acids 297-391) in solution to solid-phase bound truncated tau (residues 297-390). Binding of the former is detected with the antibody mAb 423, which specifically recognises peptides containing a C-terminal Glu-391 residue. The Tau complex formed in vitro is similar to the aggregated complex that forms in Alzheimer's disease as a consequence of the stability of the pathological Tau-Tau binding interaction through a 94/95-amino acid repeat domain (residues 297-390), found in the proteolytically stable core of the paired helical filament.
The B50 value (expressed as mean±SE) is determined as the concentration of compound at which tau-tau binding is decreased by 50%.

T1 sequence (P10636 614-708): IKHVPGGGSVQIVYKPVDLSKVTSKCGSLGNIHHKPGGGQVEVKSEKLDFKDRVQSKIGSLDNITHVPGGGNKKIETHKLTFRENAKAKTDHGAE
T1 sequence (P10636 614-707): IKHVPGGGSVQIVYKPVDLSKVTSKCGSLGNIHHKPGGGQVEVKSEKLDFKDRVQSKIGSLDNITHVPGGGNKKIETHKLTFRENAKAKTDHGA

CN(C)c1ccc2c(c1)Sc1cc(N(C)C)ccc1N2.CS(=O)(=O)O.CS(=O)(=O)O [LMT.2MsOH, N,N,N′,N′-tetramethyl-10H-phenothiazine-3,7-diaminium bis(methanesulfonate)]
solubility at 10 min ([1]; buffered aqueous solution pH 2.00, 25° C.): 1600 to 1770 mg/mL | solubility at 10 min ([1]; buffered aqueous solution pH 2.99, 25° C.): 1980 to 2090 mg/mL | solubility at 10 min ([1]; buffered aqueous solution pH 7.07, 25° C.): 2030 to 2110 mg/mL | Weight change in dynamic vapour sorption [2]: less than 0.5% | Neutropaenia in prepared blood smears (mature neutrophils) (female Wistar rats; 14 days): no decrease | Neutrophils (total neutrophils as percentage of total white cells) (female Wistar rats; 14 days oral, 95 mg MT/kg/day Days 1-10, 60 mg MT/kg/day Days 11-14): 18.30% | Dose-related deaths (female Wistar rats; 14 days oral, animal numbers per group of 8 rats): 0/8 | Early neutrophils (frequency of presence of immature neutrophils per animal group) (female Wistar rats; 14 days oral, animals per group of 8): 1/8 | Solubility g/5 ml (37° C.) [3]: 8.825-9.943 g/5 ml | Lowest dose at which methemoglobinemia was observed (minipigs): 10 mg MT/kg/day | Methemoglobinemia (minipigs; 3 mg MT/kg/day, first 28-days of dosing in the 9-month study): no indications of methemoglobinemia | EC50 [4]: 0.19 ± 0.04 µM | therapeutic index greater compared with MTC [4]: 63% | THx, therapeutic index (THx = LD50/EC50) ([4]; LD50/EC50): 179 | Gastric irritation compared with LMT.2HBr ([5]; 28-day rat studies): less gastric irritation | Gastritis, total incidence ([5]; female rats): 3 | Gastritis, grade 1 (minimal): incidence ([5]; female rats): — | Gastritis, grade 2 (slight): incidence ([5]; female rats): 2 | Gastritis, grade 3 (moderate): incidence ([5]; female rats): 1 | Inflammatory cell infiltration, grade 1 (minimal): incidence ([5]; female rats): 4 | Inflammatory cell infiltration, grade 2 (slight): incidence ([5]; female rats): 1 | Gastritis, total incidence ([5]; male rats): 2 | Gastritis, grade 1 (minimal): incidence ([5]; male rats): — | Gastritis, grade 2 (slight): incidence ([5]; male rats): 2 | Gastritis, grade 3 (moderate): incidence ([5]; male rats): — | Inflammatory cell infiltration, grade 1 (minimal): incidence ([5]; male rats): 4 | Inflammatory cell infiltration, grade 2 (slight): incidence ([5]; male rats): — | Cmax of MT moiety in plasma, fold greater than that for LMT.2HCl or LMT.2HBr [6]: more than 2 fold | Tmax ([6]; plasma): 1 h | Lowest dose at which methemoglobinemia was observed (rats): 30 mg MT/kg/day | IC50 [7]: 238 ± 74.2 µM
